{"source": "paper PMC11106165", "about": "“Repurposing the KCa3.1 Blocker Senicapoc for Ischemic Stroke” (Translational Stroke Research, 2023)", "key": {"[1]": {"system": "MMC (mouse microglial cell line)", "experiment": "Fluo-4 calcium imaging of ATP-induced Ca2+ signaling in MMC", "format": "cell-based", "conditions": "100 µM ATP, Fluo-4 ΔF/F", "experimental": "Real-time changes of [Ca^2+]i in MMCs seeded on glass coverslips at a density of 10,000 cells/cm^2 were measured using the time-lapse imaging module on a BZ-X780 fluorescence microscopy (Keyence LLC, Campbell, CA) and the fluorescent calcium indicator Fluo-4/AM from Invitrogen (ThermoFisher, Waltham, MA) as previously described. For testing the effect of KCa3.1 inhibition on intracellular calcium changes, cells were pre-incubated with senicapoc during the de-esterification step and throughout the course of the experiment. All fluorescence measurements were made at 2-s intervals at room temperature from subconfluent areas of the coverslips to ensure that only individual microglia were measured. Image data were analyzed off-line with Fiji using the ROI-1 click tool and the change in microglial [Ca^2+]i was represented as ΔF/F (change in fluorescence after baseline-subtraction)."}, "[2]": {"system": "male C57BL/6 J mice, tMCAO", "experiment": "Immunohistochemistry (Iba-1, CD3, NeuN) of infarcted hemisphere on day 8 after MCAO", "format": "in vivo, mouse", "from_the_text": "After the MRI on day 8, animals were euthanized with an overdose of isoflurane, and brains were quickly removed and sectioned into four 2-mm-thick coronal slices starting from the frontal pole. […] Cell nuclei were visualized with 4′,6-diamidino-2-phenylindole (DAPI).\nThe images were then opened on the BZ-X Analyzer, the left (infarcted) hemisphere for each section extracted and analyzed with a macro within the “Hybrid Cell Count” feature of the BZ-X Analyzer program. Images were thresholded to exclusively the area of stained cells without considering artifacts, ventricles, or folds. Each macro-generated image was verified by careful visual inspection. Results for Iba1 and CD3 are reported as percentage of section area (µm^2) that was positively stained, divided by total section area (µm^2) in the infarcted left hemisphere. NeuN is reported as the inverse of the percentage of section area (µm^2) that was positively stained, divided by total section area (µm^2) in the infarcted left hemisphere in order to quantify the Neu negative area."}, "[3]": {"molecular_target": "T1, KCa3.1 (Mus musculus, UniProt O89109)", "T1 construct": "endogenous in cells; host or cells: immortalized mouse microglial cell (MMC) line", "experiment": "Whole-cell patch-clamp of KCa3.1 currents in mouse microglial cells (MMC)", "format": "cell-based", "conditions": "1 µM free Ca2+, ramp -120 to +40 mV, mean ± 95% confidence interval, n = 4, read-out: IC50 for block of microglial KCa3.1 currents", "experimental": "An immortalized mouse microglial cell (MMC) line was kindly provided by Dr. D.T. Golenbock (University of Massachusetts Medical School, Worcester, MA) and previously used by our laboratory. Cells were cultured in Gibco’s Dulbecco’s modified Eagle’s Medium (DMEM, high glucose, L-glutamine, high pyruvate) with 5% CO2 at 37° with 1% penicillin/streptomycin and 10% fetal bovine serum. For the qPCR experiments, cells were seeded at 200,000 cells/mL; 24 h later, medium was changed to DMEM with 2% FBS and cells were stimulated with 100 ng/mL lipopolysaccharide (LPS), in the presence or absence of senicapoc, or a 0.2% DMSO control. Cells were pre-incubated with senicapoc for 1 h prior to stimulation and harvested 24 h after stimulation.\nMMCs were plated on poly-lysine-coated glass coverslips and KCa3.1 currents recorded in the whole-cell mode of the patch-clamp technique with an EPC-10 HEKA amplifier and 1 microM of free Ca^2+ in the pipette solution as previously described."}, "[4]": {"system": "male C57BL/6 J mice, tMCAO", "experiment": "tMCAO in mice, 14-point tactile and proprioceptive limb-placing score", "format": "in vivo, mouse", "conditions": "for maximum neurological score reached: vehicle maximum 5; for average neurological score (14-point): started 12 h, day 8, vehicle average 3", "experimental": "Reversible focal cerebral ischemia was induced by occlusion of the left middle cerebral artery (MCA) according to the classic filament method of Zea Longa as previously described for mice by our laboratory. All surgeries were performed in the MicroSurgery Core of the UC Davis School of Medicine by a microsurgeon with 20 years of surgical experience using a silicone rubber-coated nylon monofilament with a tip diameter of 0.21 ± 0.02 mm (No. 702112PK5Re, Doccol Corporation). Anesthesia was induced with 5% isoflurane and then maintained with 0.5 to 1.5% isoflurane in medical pure oxygen administered through a facemask. To assure consistent and continuous reduction of cerebral blood flow (CBF), a laser Doppler (Moor Instruments: MOORVMS-LDF) probe adapter was affixed to the surface of the skull over the brain area supplied by the MCA using dental cement. The probe remained in place throughout the MCAO surgery and CBF was measured continuously to confirm occlusion and later establishment of reperfusion. Animals were kept under anesthesia and body temperature was monitored throughout the whole procedure and maintained at > 36.5 °C using a feedback-controlled heating pad. Following 60 min of MCAO, the filament was withdrawn to allow reperfusion. Blood flow measurements were continued for another 15 min before removing the adapter and the laser Doppler probe. Animals received subcutaneous Buprenex at 0.02 mg/kg every 12 h to limit post-surgical pain for 24 h after surgery. The survival rate was 93%. […] In this study, out of the animals surviving to day 8 (45 out of 48), two animals were excluded because they lacked an obvious neurological deficit score at 12 h. Animals that met inclusion criteria were assigned to the 3 groups (low- and high-dose senicapoc or vehicle) based on a computer-generated randomization scheme. Six sham animals, where the filament was placed into the external carotid artery but not advanced, were used as controls for the qPCR experiments.\nStarting at 12 h after tMCAO, and following the first neurological scoring, animals received either the vehicle, Miglyol 812 neutral oil (Medium chain triglycerides, Spectrum Chemicals), a low dose of senicapoc at 10 mg/kg, or a high dose of senicapoc at 40 mg/kg via intraperitoneal (IP) injection. Mice then received the same dosage of senicapoc (or vehicle) IP every 12 h for a total of 14 doses. In the experiment in Fig. 7, drug administration was started 3 h after reperfusion. Senicapoc was synthesized in our laboratory as described. Chemical identity and purity (> 98%) were tested by ^1H and ^13C-NMR and HPLC.\nSince filament MCAO induces infarction in both the striatum and the cortex, we used the 14-point score tactile and proprioceptive limp-placing test to evaluate mice every 24 h. […] The scoring was performed as previously described in detail. The investigator performing the scoring was blinded to the treatment groups."}}, "note": "Values joined by “and” are separate entries in the source; they are usually repeats but may differ in a detail not shown here. Equal entries are not always repeated.", "data": [{"smiles": "NC(=O)C(c1ccccc1)(c1ccc(F)cc1)c1ccc(F)cc1", "note": "[senicapoc]", "values": [{"measurement": "Ca2+ influx induced by ATP", "setting": "[1]", "result": "concentration-dependently reduced"}, {"measurement": "neuronal death (NeuN-negative area)", "setting": "[2]", "result": "decreases neuronal death"}, {"measurement": "T cell infiltration (CD3 staining)", "setting": "[2]; 40 mg/kg", "result": "significantly reduced"}, {"measurement": "microglia/macrophage activation and infiltration (Iba1 staining)", "setting": "[2]; 40 mg/kg", "result": "significantly reduced"}, {"measurement": "IC50", "setting": "[3]", "result": "7 nM and 6.97 nM"}, {"measurement": "maximum neurological score reached", "setting": "[4]; 10 mg/kg low-dose group", "result": 9}, {"measurement": "average neurological score (14-point)", "setting": "[4]; 10 mg/kg", "result": 7}, {"measurement": "maximum neurological score reached", "setting": "[4]; 40 mg/kg high-dose group", "result": 10}, {"measurement": "sensorimotor coordination (neurological deficit score)", "setting": "[4]; 40 mg/kg started 3 h after tMCAO", "result": "improved on both day 3 and day 8"}, {"measurement": "average neurological score (14-point)", "setting": "[4]; 40 mg/kg", "result": 9}]}]}
